Assay results from patent publication US11981661B2, “Heterocyclic compounds” (Hoffmann-La Roche Inc., priority 2020, dated 2024).

The compounds below were run against T1, MAGL (Homo sapiens, UniProt Q99685) (assay: 2-AG assay (MAGL inhibitory activity, hydrolysis of 2-arachidonoylglycerol followed by mass spectrometry)). Conditions: 50 pM MAGL, 8 μM 2-arachidonoylglycerol, 15 min preincubation, 30 min incubation at RT, concentration range 12.5 μM to 0.8 pM.
T1 sequence (Q99685 1-303): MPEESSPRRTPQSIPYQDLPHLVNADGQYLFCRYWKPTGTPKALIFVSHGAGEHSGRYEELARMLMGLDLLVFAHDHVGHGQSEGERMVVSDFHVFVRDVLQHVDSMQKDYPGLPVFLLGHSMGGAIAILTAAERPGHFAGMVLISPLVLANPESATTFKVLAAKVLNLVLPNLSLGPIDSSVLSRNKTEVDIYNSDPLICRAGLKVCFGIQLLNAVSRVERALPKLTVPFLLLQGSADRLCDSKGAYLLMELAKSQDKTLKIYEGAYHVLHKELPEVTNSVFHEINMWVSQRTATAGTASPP
Assay type: biochemical
Outline: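 Activity derived from the arachidonic acid/d8-arachidonic acid MS intensity ratio after acetonitrile quench. Reaction: 8 μM 2-AG substrate with 50 pM MAGL, 30 min at RT, following 15 min RT compound preincubation; buffer 50 mM TRIS, 1 mM EDTA, 0.01% Tween; final compound range 12.5 μM to 0.8 pM.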
With `O=C1N[C@H](CCC(=O)N2CC(c3ccc(N4CCC(C(F)(F)F)C4)nc3)C2)CO1` (single isomer, unassigned) [Example 206] the IC50 was 16 nM.
`O=C1N[C@H](CCC(=O)N2CC(c3ccc(S(=O)(=O)C4CCCCC4)cc3)C2)CO1` [Example 77, (4R)-4-[3-[3-(4-Cyclohexylsulfonyl-phenyl)azetidin-1-yl]-3-oxo-propyl] oxazolidin-2-one] gave an IC50 of 35 nM.
With `CS(=O)(=O)c1cc(Cl)ccc1-c1ccc(C2CN(C(=O)CCC3CNC(=O)N3)C2)cc1` (single isomer, unassigned) [Example 218, (+)- or (−)-4-[3-[3-[4-(4-Chloro-2-methylsulfonyl-phenyl)phenyl]azetidin-1-yl]-3-oxo-propyl]imidazolidin-2-one] the IC50 was 1210 nM.
`O=C1N[C@H](CCC(=O)N2CC(c3ccc(C4(C(F)(F)F)CC4)nc3)C2)CO1` [Example 102, (4R)-4-[3-Oxo-3-[3-[6-[1-(trifluoro-methyl)cyclopropyl]-3-pyridyl]azetidin-1-yl]propyl]oxazolidin-2-one] showed an IC50 of 420 nM.
Compound `O=C1N[C@H](CCC(=O)N2CC3(CC(Cc4ccc(C(F)(F)F)nc4)C3)C2)CO1` [Example 125, (4R)-4-[3-Oxo-3-[6-[[6-(trifluoro-methyl)-3-pyridyl]methyl]-2-azaspiro[3.3]heptan-2-yl]propyl] oxazolidin-2-one] has an IC50 of 9 nM.
With `O=C1N[C@H](CCC(=O)N2CC(OCc3ccc(S(=O)(=O)C(F)(F)F)cc3)C2)CO1` [Example 166, (4R)-4-[3-Oxo-3-[3-[[4-(trifluoro-methylsulfonyl)phenyl]methoxy]azetidin-1-yl]propyl]oxazolidin-2-one] the IC50 was 48 nM.
With `CS(=O)(=O)c1ccc(CC2CC3(C2)CN(C(=O)CC[C@@H]2COC(=O)N2)C3)cc1` [Example 180, (4R)-4-[3-[6-[(4-Methyl-sulfonylphenyl)methyl]-2-azaspiro[3.3]heptan-2-yl]-3-oxo-propyl]oxazolidin-2-one] the IC50 was 93 nM.
For `COC(=O)c1cc(Cl)ccc1Oc1ccc(C2CN(C(=O)CC[C@@H]3COC(=O)N3)C2)cn1` [Example 199, Methyl 5-chloro-2-[[5-[1-[3-[(4R)-2-oxooxazolidin-4-yl]propanoyl]azetidin-3-yl]-2-pyridyl]oxy]benzoate], the IC50 was 14 nM.
In the case of `O=C1N[C@H](CCC(=O)N2CC(c3ccc(N4CCC(C(F)(F)F)C4)cc3)C2)CO1` (stereo partly drawn) [Example 135, (4R)-4-[3-Oxo-3-[3-[4-[3-(trifluoro-methyl)pyrrolidin-1-yl]phenyl]azetidin-1-yl]propyl] oxazolidin-2-one], the IC50 is reported as 5 nM.
With `CC(C)(C)c1ccc(C2CN(C(=O)CC[C@@H]3COC(=O)N3)C2)cn1` [Example 91, (4R)-4-[3-[3-(6-tert-Butyl-3-pyridyl)azetidin-1-yl]-3-oxo-propyl]oxazolidin-2-one] the IC50 was 357 nM.
For `CC(C)(C)S(=O)(=O)c1ccc(C2CN(C(=O)CC[C@@H]3COC(=O)N3)C2)cn1` [Example 111, (4R)-4-[3-[3-(6-tert-Butylsulfonyl-3-pyridyl)azetidin-1-yl]-3-oxo-propyl]oxazolidin-2-one], the IC50 was 1170 nM.
For `O=C1N[C@H](CCC(=O)N2CC(c3cnc(NCC4(C(F)(F)F)CC4)cn3)C2)CO1` [Example 176, (4R)-4-[3-Oxo-3-[3-[5-[[1-(trifluoromethyl)cyclopropyl]methylamino]pyrazin-2-yl]azetidin-1-yl]propyl] oxazolidin-2-one], the IC50 was 12 nM.
With `O=C1N[C@H](CCC(=O)N2CC3(CC(Cc4ncc(C(F)(F)F)cn4)C3)C2)CO1` [Example 183, (4R)-4-[3-Oxo-3-[6-[[5-(trifluoro-methyl)pyrimidin-2-yl]methyl]-2-azaspiro[3.3]heptan-2-yl]propyl] oxazolidin-2-one] the IC50 was 84 nM.
For `O=C1N[C@H](CCC(=O)N2CC(c3noc(-c4ccc(C(F)(F)F)nc4)n3)C2)CO1` [Example 168, (4R)-4-[3-Oxo-3-[3-[5-[6-(trifluoromethyl)-3-pyridyl]-1,2,4-oxadiazol-3-yl]azetidin-1-yl]propyl]oxazolidin-2-one], the IC50 was 2020 nM.
`CS(=O)(=O)c1cc(F)ccc1CC1CC2(C1)CN(C(=O)CC[C@@H]1COC(=O)N1)C2` [Example 157, (4R)-4-[3-[6-[(4-Fluoro-2-methylsulfonyl-phenyl)methyl]-2-azaspiro[3.3]heptan-2-yl]-3-oxo-propyl]oxazolidin-2-one] showed an IC50 of 25 nM.
Work on `O=C1N[C@H](CCC(=O)N2CC3(CCC(Cc4ccc(C(F)(F)F)cn4)CC3)C2)CO1` [Example 189, (4R)-4-[3-Oxo-3-[7-[[5-(trifluoro-methyl)-2-pyridyl]methyl]-2-azaspiro[3.5]nonan-2-yl]propyl] oxazolidin-2-one] yielded an IC50 of 16 nM.
With `O=C1N[C@H](CCC(=O)N2CC(NCc3cc(C(F)(F)F)ccc3F)C2)CO1` [Example 156, (4R)-4-[3-[3-[[2-Fluoro-5-(trifluoro-methyl)phenyl]methylamino]azetidin-1-yl]-3-oxo-propyl] oxazolidin-2-one] the IC50 was 279 nM.
Compound `CS(=O)(=O)c1cc(Cl)ncc1-c1ccc(C2CN(C(=O)CC[C@@H]3COC(=O)N3)C2)cc1` [Example 118, (4R)-4-[3-[3-[4-(6-Chloro-4-methylsulfonyl-3-pyridyl)phenyl]azetidin-1-yl]-3-oxo-propyl] oxazolidin-2-one] has an IC50 of 12 nM.
For `CS(=O)(=O)c1cc(Cl)cnc1-c1ccc(C2CN(C(=O)CC[C@@H]3COC(=O)N3)C2)cc1` [Example 115, (4R)-4-[3-[3-[4-(5-Chloro-3-methylsulfonyl-2-pyridyl)phenyl]azetidin-1-yl]-3-oxo-propyl]oxazolidin-2-one], the IC50 was 3 nM.
Work on `O=C1N[C@H](CCC(=O)N2CC(c3ccc(S(=O)(=O)c4ccccc4)cc3)C2)CO1` [Example 74, (4R)-4-[3-[3-[4-(Benzenesulfonyl)phenyl]azetidin-1-yl]-3-oxo-propyl]oxazolidin-2-one] yielded an IC50 of 5 nM.
`O=C1CC[C@@H](COC(=O)N2CC(OCc3ccc(C(F)(F)F)cc3F)C2)N1` [Example 52, [(2S)-5-Oxopyrrolidin-2-yl]methyl 3-[[2-fluoro-4-(trifluoromethyl)phenyl]methoxy]azetidine-1-carboxylate] was tested, and the IC50 was 167 nM.
`O=C1N[C@H](CCC(=O)N2CC(c3ccc(-c4ccc(F)cc4F)cc3)C2)CO1` [Example 24, (4R)-4-[3-[3-[4-(2,4-Difluorophenyl)phenyl]azetidin-1-yl]-3-oxo-propyl]oxazolidin-2-one] showed an IC50 of 2 nM.
`O=C1N[C@H](CCC(=O)N2CC3(C2)CN(S(=O)(=O)c2cccc(OC(F)(F)F)c2)C3)CO1` [Example 149, (4R)-4-[3-Oxo-3-[2-[3-(trifluoro-methoxy)phenyl]sulfonyl-2,6-diazaspiro[3.3]heptan-6-yl]propyl]oxazolidin-2-one] showed an IC50 of 976 nM.
`CS(=O)(=O)c1cc(Cl)ccc1-c1ccc(C2CN(C(=O)CC[C@@H]3COC(=O)N3)C2)cc1` [Example 82, (4R)-4-[3-[3-[4-(4-Chloro-2-methyl-sulfonyl-phenyl)phenyl]azetidin-1-yl]-3-oxo-propyl]oxazolidin-2-one] gave an IC50 of 0.5 nM.
In the case of `CN(Cc1ccc(C(F)(F)F)cc1F)C1CN(C(=O)CC[C@@H]2COC(=O)N2)C1` [Example 162, (4R)-4-[3-[3-[[2-Fluoro-4-(trifluoromethyl)phenyl]methyl-methyl-amino]azetidin-1-yl]-3-oxo-propyl] oxazolidin-2-one], the IC50 is reported as 108 nM.
With `O=C1N[C@H](CCC(=O)N2CC(C#Cc3cccc(Cl)c3)C2)CO1` [Example 33, (4R)-4-[3-[3-[2-(3-Chlorophenyl)ethynyl]azetidin-1-yl]-3-oxo-propyl]oxazolidin-2-one] the IC50 was 12 nM.
`O=C1N[C@H](CCC(=O)N2CC(c3ncc(-c4ccc(Cl)cc4F)cn3)C2)CO1` [Example 112, (4R)-4-[3-[3-[5-(4-Chloro-2-fluoro-phenyl)pyrimidin-2-yl]azetidin-1-yl]-3-oxo-propyl]oxazolidin-2-one] gave an IC50 of 43 nM.
`O=C1N[C@H](CCC(=O)N2CC(c3cnc(N4CC5(C4)CC(F)(F)C5)cn3)C2)CO1` [Example 139, (4R)-4-[3-[3-[5-(6,6-Difluoro-2-azaspiro[3.3]heptan-2-yl)pyrazin-2-yl]azetidin-1-yl]-3-oxo-propyl]oxazolidin-2-one] was tested, and the IC50 was 123 nM.
`O=C1N[C@H](COC(=O)N2CC(OCc3ccc(C(F)(F)F)cc3F)C2)CO1` [Example 54, [(4S)-2-Oxooxazolidin-4-yl]methyl 3-[[2-fluoro-4-(trifluoromethyl)phenyl]methoxy] azetidine-1-carboxylate] showed an IC50 of 36 nM.
For `CC(C)(Oc1ccc(C2CN(C(=O)CCc3cnn[nH]3)C2)cc1)C(F)(F)F` [Example 38, 3-(1H-1,2,3-Triazol-5-yl)-l-(3-(4-((1,1,1-trifluoro-2-methylpropan-2-yl)oxy)phenyl)azetidin-1-yl)propan-1-one], the IC50 was 234 nM.
In the case of `O=C1N[C@H](CCC(=O)N2CC(c3ccc(N(CC4CC4)c4ccccc4)nc3)C2)CO1` [Example 95, (4R)-4-[3-[3-[6-[N-(Cyclopropyl-methyl)anilino]-3-pyridyl]azetidin-1-yl]-3-oxo-propyl]oxazolidin-2-one], the IC50 is reported as 0.35 nM.
`O=C1NC(CCC(=O)N2CC3(CCC(Cc4ccc(C(F)(F)F)nc4)C3)C2)CO1` (single isomer, unassigned) [Example 211, (+)- or (−)-(4R)-4-[3-Oxo-3-[6-[[6-(trifluoromethyl)-3-pyridyl]methyl]-2-azaspiro[3.4]octan-2-yl]propyl]oxazolidin-2-one] was tested, and the IC50 was 84 nM.
Work on `O=C(CCCc1cnn[nH]1)N1CC2(CC(Oc3cncc(C(F)(F)F)n3)C2)C1` [Example 43, 4-(1H-Triazol-5-yl)-1-[6-[6-(trifluoromethyl)pyrazin-2-yl]oxy-2-azaspiro[3.3]heptan-2-yl]butan-1-one] yielded an IC50 of 6950 nM.
